Results published in paper PMC11606603, “The membrane domains of mammalian adenylyl cyclases are lipid receptors” (eLife, 2024).
Where “and” joins values, the source holds several entries; their conditions need not be identical. Equal values may be shown once.

Legend:
Assay type in all cases: biochemical
mAC4 = molecular target: T1, mAC4 (Homo sapiens, UniProt Q8NFM4); assay: AC assay, Gsα-stimulated mAC4 in membranes from transfected HEK293 cells; details: 20 µM fatty acid; 300 nM Gsα; single experiments
T1 construct: Human mAC genes were from GenScript and fitted with a C-terminal FLAG-tag; FLAG (C); made in house; host or cells: HEK293, permanently transfected; membrane preparation
T1 sequence (Q8NFM4 1-1077): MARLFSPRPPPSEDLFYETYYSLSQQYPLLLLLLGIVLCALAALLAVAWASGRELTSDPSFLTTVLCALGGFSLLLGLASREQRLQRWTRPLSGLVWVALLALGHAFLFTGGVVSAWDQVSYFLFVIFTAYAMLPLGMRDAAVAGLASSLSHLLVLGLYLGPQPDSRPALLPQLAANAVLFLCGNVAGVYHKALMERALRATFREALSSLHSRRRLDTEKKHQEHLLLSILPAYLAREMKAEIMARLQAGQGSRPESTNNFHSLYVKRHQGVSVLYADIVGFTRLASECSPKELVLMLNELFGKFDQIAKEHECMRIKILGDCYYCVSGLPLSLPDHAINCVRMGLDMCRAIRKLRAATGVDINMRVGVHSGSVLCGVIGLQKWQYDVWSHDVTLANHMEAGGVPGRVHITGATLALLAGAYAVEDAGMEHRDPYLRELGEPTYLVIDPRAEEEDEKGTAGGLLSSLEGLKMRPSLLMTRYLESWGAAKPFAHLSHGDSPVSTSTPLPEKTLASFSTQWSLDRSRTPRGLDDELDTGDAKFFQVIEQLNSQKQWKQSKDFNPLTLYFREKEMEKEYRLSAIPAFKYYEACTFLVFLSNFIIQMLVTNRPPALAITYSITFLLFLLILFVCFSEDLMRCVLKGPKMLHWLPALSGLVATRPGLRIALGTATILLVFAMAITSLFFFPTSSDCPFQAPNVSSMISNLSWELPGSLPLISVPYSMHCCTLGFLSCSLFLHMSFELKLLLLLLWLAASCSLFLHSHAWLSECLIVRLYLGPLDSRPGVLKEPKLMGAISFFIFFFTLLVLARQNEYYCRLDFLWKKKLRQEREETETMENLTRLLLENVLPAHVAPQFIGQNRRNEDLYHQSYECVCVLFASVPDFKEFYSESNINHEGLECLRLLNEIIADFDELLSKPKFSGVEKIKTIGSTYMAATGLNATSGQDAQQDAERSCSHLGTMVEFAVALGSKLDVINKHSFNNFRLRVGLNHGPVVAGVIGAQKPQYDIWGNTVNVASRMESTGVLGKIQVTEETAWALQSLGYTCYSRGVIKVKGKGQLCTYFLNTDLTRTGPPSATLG
Method: (§1) hAC sequences were from NCBI were: ADCY1: NM_021116.3; ADCY2: NM_020546.2; ADCY3: NM_004036.4; ADCY4: NM_001198568.2; ADCY5: NM_183357.2; ADCY6: NM_015270.4; ADCY7: NM_001114.4; ADCY8: NM_001115.2; ADCY9: NM_001116.3. Human mAC genes were from GenScript and fitted with a C-terminal FLAG-tag. […] The gene was synthesized by GenScript. HEK293 cells were maintained in Dulbeccos Modified Eagle Medium (DMEM) with 10% fetal bovine serum at 37°C and 5% CO2. Transfection with AC plasmids was with PolyJet (SignaGen, Frederick, MD, USA). Permanent cell lines were generated by selection for 7 days with 600 µg/ml G418 and maintained with 300 µg/ml For membrane preparation, cells were tyrpsinized, collected by centrifugation (3000 × g, 5 min) and lysed and homogenized in 20 mM HEPES, pH 7.5, 1 mM Ethylenediaminetetraacetic acid (EDTA), 2 mM MgCl2, 1 mM Dithiothreitol (DTT), one tablet of cOmplete, EDTA-free (per 50 ml) and 250 mM sucrose by 20 strokes in a potter homogenizer on ice. Debris was removed (5 min at 1000 × g, 0°C), membranes were collected at 100,000 × g, 60 min at 0°C, suspended and stored at −80°C in 20 mM MOPS, pH 7.5, 0.5 mM EDTA, 2 mM MgCl2. […] Three cerebral cortices were dissected and homogenized in 4.5 ml cold 48 mM Tris–HCl, pH 7.4, 12 mM MgC1_2, and 0.1 mM Ethylene glycol-bis(β-aminoethyl ether)-N,N,N′,N′-tetraacetic acid (EGTA) with a Polytron hand disperser (Kinematica AG, Switzerland). […] The pellet was washed once with 5 ml 1 mM KHCO3. The final suspension in 2 ml 1 mM KHCO3 was stored in aliquots at −80°C.
(§2) In a volume of 10 μl, AC activities were measured using 1 mM ATP, 2 mM MgCl2, 3 mM creatine phosphate, 60 μg/ml creatine kinase, and 50 mM MOPS pH 7.5. The cAMP assay kit from Cisbio (Codolet, France) was used for detection according to the supplier’s instructions. For each assay, a cAMP standard curve was established. EC50 and IC50 values were calculated by GraphPad Prism version 8.4.3 for Windows, GraphPad Software, San Diego, CA, USA, https://www.graphpad.com .

mAC3 = molecular target: T2, mAC3 (Homo sapiens, UniProt O60266); assay: AC assay, Gsα-stimulated mAC3 in membranes from transfected HEK293 cells; details: fatty acid 20 µM; individual experiments
T2 construct: Human mAC genes were from GenScript and fitted with a C-terminal FLAG-tag; FLAG (C); made in house; host or cells: HEK293, permanently transfected; membrane preparation
Method: as §1, §2

mAC1 = molecular target: T3, mAC1 (Homo sapiens, UniProt Q08828); assay: AC assay, Gsα-stimulated mAC1 in membranes from transfected HEK293 cells; details: 20 µM fatty acid; 300 nM Gsα; single experiments
T3 construct: Human mAC genes were from GenScript and fitted with a C-terminal FLAG-tag; FLAG (C); made in house; host or cells: HEK293, permanently transfected; membrane preparation
Method: as §1, §2

mAC2 = molecular target: T4, mAC2 (Homo sapiens, UniProt Q08462); assay: AC assay, Gsα-stimulated mAC2 in membranes from transfected HEK293 cells; details: Figure 5-figure supplement 1 left, 20 µM
T4 construct: Human mAC genes were from GenScript and fitted with a C-terminal FLAG-tag; FLAG (C); made in house; host or cells: HEK293, permanently transfected; membrane preparation
T4 sequence (Q08462 whole entry): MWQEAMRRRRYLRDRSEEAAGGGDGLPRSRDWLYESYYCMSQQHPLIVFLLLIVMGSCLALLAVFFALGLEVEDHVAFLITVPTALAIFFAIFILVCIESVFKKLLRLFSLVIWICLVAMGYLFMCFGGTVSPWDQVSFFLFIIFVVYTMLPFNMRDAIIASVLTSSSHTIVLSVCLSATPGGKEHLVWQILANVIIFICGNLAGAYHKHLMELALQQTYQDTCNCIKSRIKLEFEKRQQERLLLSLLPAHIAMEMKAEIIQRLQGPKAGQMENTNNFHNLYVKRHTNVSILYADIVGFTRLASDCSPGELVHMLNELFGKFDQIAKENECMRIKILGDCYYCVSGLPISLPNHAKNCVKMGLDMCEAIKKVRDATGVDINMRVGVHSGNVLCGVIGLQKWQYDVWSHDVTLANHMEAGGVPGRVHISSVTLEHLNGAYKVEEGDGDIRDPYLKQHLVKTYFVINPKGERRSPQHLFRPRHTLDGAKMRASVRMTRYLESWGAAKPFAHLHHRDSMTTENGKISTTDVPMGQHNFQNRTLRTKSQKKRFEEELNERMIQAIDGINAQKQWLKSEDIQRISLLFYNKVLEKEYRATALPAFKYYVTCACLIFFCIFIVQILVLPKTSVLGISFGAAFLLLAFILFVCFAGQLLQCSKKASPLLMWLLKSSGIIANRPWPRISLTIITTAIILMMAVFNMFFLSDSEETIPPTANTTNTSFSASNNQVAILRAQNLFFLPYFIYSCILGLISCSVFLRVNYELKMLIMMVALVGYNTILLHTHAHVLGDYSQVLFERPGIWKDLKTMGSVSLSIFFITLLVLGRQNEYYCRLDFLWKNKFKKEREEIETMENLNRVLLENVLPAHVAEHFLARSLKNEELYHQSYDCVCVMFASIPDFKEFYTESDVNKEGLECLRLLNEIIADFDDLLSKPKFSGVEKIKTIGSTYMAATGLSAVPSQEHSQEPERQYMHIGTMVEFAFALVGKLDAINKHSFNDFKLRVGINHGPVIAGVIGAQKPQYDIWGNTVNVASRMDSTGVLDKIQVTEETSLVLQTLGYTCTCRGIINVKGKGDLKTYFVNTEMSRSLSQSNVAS
T4 sequence (P63092 2-394 Q227L partner): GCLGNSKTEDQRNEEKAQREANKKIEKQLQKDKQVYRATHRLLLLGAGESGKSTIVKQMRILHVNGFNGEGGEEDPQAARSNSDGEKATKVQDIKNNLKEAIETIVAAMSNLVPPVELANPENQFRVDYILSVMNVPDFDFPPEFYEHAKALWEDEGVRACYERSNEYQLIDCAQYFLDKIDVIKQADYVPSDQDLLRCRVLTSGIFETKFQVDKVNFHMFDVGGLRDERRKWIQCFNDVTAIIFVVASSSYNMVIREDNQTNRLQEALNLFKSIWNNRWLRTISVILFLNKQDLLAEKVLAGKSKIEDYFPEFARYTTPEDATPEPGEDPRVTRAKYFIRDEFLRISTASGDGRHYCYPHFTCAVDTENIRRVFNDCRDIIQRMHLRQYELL
Method: as §1, §2

mAC5 = molecular target: T5, mAC5 (Homo sapiens, UniProt O95622); assay: AC assay, Gsα-stimulated mAC5 in membranes from transfected HEK293 cells; details: 20µM fatty acid concentration
T5 construct: Human mAC genes were from GenScript and fitted with a C-terminal FLAG-tag; FLAG (C); made in house; host or cells: HEK293, permanently transfected; membrane preparation
T5 sequence (O95622 whole entry): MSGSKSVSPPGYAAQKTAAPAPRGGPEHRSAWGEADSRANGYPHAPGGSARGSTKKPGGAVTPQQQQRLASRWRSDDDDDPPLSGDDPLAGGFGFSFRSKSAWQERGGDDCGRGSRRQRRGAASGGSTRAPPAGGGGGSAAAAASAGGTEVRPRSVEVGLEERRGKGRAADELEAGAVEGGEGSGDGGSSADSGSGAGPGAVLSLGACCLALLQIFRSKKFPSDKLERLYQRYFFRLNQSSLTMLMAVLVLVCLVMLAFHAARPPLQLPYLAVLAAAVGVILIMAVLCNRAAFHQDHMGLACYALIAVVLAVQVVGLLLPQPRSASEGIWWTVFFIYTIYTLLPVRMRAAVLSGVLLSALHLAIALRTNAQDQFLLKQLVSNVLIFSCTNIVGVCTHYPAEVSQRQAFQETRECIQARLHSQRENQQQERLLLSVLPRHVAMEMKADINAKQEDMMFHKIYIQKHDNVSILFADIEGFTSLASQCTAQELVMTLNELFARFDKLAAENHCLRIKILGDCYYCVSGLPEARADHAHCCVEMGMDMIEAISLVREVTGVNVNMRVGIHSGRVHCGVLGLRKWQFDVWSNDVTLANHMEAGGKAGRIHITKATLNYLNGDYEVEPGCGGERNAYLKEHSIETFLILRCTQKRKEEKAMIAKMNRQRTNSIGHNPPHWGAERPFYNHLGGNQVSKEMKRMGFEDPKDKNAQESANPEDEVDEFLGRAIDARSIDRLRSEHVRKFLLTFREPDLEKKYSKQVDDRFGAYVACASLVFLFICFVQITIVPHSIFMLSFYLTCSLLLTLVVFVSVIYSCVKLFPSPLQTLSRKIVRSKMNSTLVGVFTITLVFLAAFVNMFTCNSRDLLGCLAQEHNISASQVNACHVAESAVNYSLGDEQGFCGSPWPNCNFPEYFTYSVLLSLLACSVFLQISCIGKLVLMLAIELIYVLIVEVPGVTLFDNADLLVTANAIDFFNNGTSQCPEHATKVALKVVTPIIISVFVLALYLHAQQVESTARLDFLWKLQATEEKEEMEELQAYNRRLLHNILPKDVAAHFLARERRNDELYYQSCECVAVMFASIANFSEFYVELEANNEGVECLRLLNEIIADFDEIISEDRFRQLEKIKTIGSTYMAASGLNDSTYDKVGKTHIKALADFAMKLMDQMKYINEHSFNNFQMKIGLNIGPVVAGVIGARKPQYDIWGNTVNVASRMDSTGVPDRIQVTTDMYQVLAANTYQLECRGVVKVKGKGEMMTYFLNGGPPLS
Method: as §1, §2

mAC6 = molecular target: T6, mAC6 (Homo sapiens, UniProt O43306); assay: AC assay, Gsα-stimulated mAC6 in membranes from transfected HEK293 cells; details: 20µM fatty acid concentration
T6 construct: Human mAC genes were from GenScript and fitted with a C-terminal FLAG-tag; FLAG (C); made in house; host or cells: HEK293, permanently transfected; membrane preparation
Method: as §1, §2

mAC7 = molecular target: T7, mAC7 (Homo sapiens, UniProt P51828); assay: AC assay, Gsα-stimulated mAC7 in membranes from transfected HEK293 cells; details: Figure 5-figure supplement 2 left, 20 µM
T7 construct: Human mAC genes were from GenScript and fitted with a C-terminal FLAG-tag; FLAG (C); made in house; host or cells: HEK293, permanently transfected; membrane preparation
Method: as §1, §2

mAC8 = molecular target: T8, mAC8 (Homo sapiens, UniProt P40145); assay: AC assay, Gsα-stimulated mAC8 in membranes from transfected HEK293 cells; details: 20µM fatty acid concentration
T8 construct: Human mAC genes were from GenScript and fitted with a C-terminal FLAG-tag; FLAG (C); made in house; host or cells: HEK293, permanently transfected; membrane preparation
Method: as §1, §2

mAC9 = molecular target: T9, mAC9 (Homo sapiens, UniProt O60503); assay: AC assay, Gsα-stimulated mAC9 in membranes from transfected HEK293 cells
T9 construct: Human mAC genes were from GenScript and fitted with a C-terminal FLAG-tag; FLAG (C); made in house; host or cells: HEK293, permanently transfected; membrane preparation
T9 sequence (O60503 whole entry): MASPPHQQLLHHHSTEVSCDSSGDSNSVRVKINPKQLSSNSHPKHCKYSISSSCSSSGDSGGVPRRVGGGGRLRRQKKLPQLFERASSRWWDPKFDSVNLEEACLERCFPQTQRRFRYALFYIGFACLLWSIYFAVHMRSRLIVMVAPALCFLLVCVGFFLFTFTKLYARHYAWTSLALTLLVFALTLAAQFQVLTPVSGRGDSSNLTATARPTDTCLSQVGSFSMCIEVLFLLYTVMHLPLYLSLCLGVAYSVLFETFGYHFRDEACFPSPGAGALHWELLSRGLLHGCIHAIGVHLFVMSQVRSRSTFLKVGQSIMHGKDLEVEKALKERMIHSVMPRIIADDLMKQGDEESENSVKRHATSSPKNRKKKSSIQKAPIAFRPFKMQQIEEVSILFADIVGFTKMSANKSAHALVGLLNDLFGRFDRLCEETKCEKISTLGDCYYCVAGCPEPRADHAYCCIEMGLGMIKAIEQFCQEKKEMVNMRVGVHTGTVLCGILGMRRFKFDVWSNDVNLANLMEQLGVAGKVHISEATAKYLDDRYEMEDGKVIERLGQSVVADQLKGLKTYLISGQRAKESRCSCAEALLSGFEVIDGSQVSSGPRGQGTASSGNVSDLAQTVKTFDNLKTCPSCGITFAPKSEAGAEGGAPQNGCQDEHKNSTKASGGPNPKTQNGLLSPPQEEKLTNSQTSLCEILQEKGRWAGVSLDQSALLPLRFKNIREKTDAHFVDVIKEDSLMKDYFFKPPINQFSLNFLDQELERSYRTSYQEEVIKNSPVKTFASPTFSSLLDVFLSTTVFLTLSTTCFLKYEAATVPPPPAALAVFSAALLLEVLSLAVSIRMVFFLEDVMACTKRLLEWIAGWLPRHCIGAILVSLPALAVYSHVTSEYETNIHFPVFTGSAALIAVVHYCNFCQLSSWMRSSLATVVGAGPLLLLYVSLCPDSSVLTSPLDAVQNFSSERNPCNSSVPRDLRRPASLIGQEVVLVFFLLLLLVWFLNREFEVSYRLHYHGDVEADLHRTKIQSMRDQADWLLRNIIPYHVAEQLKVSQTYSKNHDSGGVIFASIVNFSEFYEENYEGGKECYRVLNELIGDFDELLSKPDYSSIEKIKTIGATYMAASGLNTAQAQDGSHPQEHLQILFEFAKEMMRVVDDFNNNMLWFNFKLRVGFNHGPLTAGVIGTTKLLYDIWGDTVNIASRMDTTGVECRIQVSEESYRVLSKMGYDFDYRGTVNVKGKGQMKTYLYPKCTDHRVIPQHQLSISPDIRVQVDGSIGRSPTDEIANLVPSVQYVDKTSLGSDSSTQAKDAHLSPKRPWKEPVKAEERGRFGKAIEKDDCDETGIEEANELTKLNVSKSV
T9 sequence (P63092 2-394 Q227L partner): as the sequence (P63092 2-394 Q227L partner) above
Method: as §1, §2

Row | mAC9 activity (%);(100% = Gsα stimulation) stimulated by 300nM Gsα (mAC9; 3 µM fatty acid, 300 nM Gsα, single experiments) | mAC9 activity (%);(100% = Gsα stimulation) stimulated by 300nM Gsα (mAC9; 6 µM fatty acid, 300 nM Gsα, single experiments) | EC50 (mAC9; enhancement of 300 nM Gsα-stimulated activity, read-out: EC50 for mAC9) [µM] | SMILES | mAC4 activity [%] (100% = 300nM Gsα stimulation); 20µM fatty acid concentration (mAC4) | mAC3 activity [%] (100% = 300nM Gsα stimulation) (mAC3) | mAC1 activity [%] (100% = 300nM Gsα stimulation); 20µM fatty acid concentration (mAC1) | mAC2 activity [%] (100% = 300nM Gsα stimulation); 20µM fatty acid concentration (mAC2) | mAC5 activity [%] (100% = 300nM Gsα stimulation) (mAC5) | mAC6 activity [%] (100% = 300nM Gsα stimulation) (mAC6) | mAC7 activity [%] (100% = 300nM Gsα stimulation); 20µM fatty acid concentration (mAC7) | mAC8 activity [%] (100% = 300nM Gsα stimulation) (mAC8) | mAC9 activity [%] (100% = 300nM Gsα stimulation); 20µM fatty acid concentration (mAC9; 20 µM fatty acid, 300 nM Gsα, single experiments)
1 |  |  |  | CCCCCCCCCC(O)CCCCCCCC(=O)O (stereo not drawn) [9-HSA, 9-Hydroxystearic acid] | 134% and 93% | 104% and 110% | 95% and 93% | 89% and 75% | 100% and 102% | 122% and 118% | 161% and 83% | 67% and 108% | 93% and 157%
2 | 128% and 86% and 116% | 165% and 99% and 97% and 190% | 13.7 | CCCCCCCCCCCC(=O)O [Lauric acid, Lauric (dodecanoic) acid] | 54% and 104% and 67% | 117% and 189% and 186% and 84% |  | 89% and 79% | 107% and 56% | 93% and 80% |  | 80% and 69% | 
